In US11780849B2, “Imino sulfanone inhibitors of ENPP1” (Volastra Therapeutics, Inc., priority 2020, dated 2023):
Like-named read-outs stand apart in the source and are kept apart here.

Key:
[1] = target: ENPP-1 ECD (Homo sapiens (Human), UniProt P22413); experiment: Assay 2: inhibition of ENPP1 hydrolysis of 2′,3′-cGAMP (AMP-Glo, […] enzyme); details: inhibition of ENPP1 hydrolysis of 2′,3′-cGAMP, no unit in Table 18 (Table 17 legend for this assay uses nM)
Method: Assay 2: Compared to the conditions in Assay 1, this assay has a larger dynamic range and ensures the system is under steady-state conditions by reducing the enzyme concentration in the assay.
Test compounds were plated in a 3× dilution scheme in a 384 well plate. […] AMP Detection solution (10 μL) was added to each well, the plate centrifuged and incubated for 60 min.

[2] = target: ENPP1 on MDA-MB-231 cells (Homo sapiens (Human), UniProt P22413); experiment: Assay 3: inhibition of ENPP1 hydrolysis of AMP p-nitrophenyl ester on MDA-MB-231 cells
Sequence of ENPP1 on MDA-MB-231 cells (P22413 whole entry): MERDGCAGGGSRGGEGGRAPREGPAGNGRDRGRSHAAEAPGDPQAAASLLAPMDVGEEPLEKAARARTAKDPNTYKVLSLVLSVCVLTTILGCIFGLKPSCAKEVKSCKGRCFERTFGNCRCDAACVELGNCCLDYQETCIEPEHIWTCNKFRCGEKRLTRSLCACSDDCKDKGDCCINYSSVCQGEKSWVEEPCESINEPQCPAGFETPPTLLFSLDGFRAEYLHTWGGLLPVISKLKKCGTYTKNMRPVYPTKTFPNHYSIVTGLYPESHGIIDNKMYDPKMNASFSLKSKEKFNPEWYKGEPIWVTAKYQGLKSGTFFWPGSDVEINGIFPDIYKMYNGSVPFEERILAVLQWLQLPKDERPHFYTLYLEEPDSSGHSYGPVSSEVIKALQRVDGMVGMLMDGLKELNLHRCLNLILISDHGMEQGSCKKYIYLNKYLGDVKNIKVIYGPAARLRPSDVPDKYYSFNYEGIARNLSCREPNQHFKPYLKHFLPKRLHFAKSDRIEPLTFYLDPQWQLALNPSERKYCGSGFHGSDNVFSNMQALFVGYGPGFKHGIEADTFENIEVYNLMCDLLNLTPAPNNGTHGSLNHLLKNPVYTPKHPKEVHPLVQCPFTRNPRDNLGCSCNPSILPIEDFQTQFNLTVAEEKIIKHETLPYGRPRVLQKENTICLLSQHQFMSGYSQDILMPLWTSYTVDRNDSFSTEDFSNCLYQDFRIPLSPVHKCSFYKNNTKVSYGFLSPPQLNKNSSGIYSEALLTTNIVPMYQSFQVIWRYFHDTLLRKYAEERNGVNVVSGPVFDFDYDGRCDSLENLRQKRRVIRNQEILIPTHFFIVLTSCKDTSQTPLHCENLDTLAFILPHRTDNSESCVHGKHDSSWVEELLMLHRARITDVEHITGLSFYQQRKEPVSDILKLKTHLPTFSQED

[3] = read-out: Assay 3 (KI, app), apparent KI from IC50 via Cheng/Prusoff, pNP-AMP […], MDA-MB-231 cells, pH 7.4, 37° C., 3 h, unit inferred

Sequence of ENPP-1 ECD (P22413 98-925): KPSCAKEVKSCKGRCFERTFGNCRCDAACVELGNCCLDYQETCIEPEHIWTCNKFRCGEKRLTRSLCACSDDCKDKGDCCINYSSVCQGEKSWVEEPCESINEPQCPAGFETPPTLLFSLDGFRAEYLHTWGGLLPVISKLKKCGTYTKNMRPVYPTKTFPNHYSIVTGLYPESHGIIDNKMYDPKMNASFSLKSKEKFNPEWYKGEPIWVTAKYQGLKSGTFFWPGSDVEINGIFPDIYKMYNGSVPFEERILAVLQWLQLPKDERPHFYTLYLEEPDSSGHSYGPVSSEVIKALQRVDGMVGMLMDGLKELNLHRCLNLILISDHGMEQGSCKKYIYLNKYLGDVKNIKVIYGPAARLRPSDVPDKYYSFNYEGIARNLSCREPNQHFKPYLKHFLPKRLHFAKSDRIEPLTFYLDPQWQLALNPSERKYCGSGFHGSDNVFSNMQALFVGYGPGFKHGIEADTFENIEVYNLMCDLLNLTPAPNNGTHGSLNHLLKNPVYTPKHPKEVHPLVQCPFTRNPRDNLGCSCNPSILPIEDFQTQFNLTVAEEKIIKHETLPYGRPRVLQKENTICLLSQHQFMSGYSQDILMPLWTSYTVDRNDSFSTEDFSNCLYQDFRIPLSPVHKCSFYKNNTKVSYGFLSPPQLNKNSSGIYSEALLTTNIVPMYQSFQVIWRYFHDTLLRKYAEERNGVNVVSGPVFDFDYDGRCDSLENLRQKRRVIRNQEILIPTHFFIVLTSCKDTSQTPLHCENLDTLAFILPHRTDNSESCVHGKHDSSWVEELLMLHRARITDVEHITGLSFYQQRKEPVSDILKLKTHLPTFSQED

Row | Structure (SMILES) | Ki ([1]; Assay 2 (KI)) | Ki [2] | Ki ([1]; read-out: Assay 2 (KI)) | Ki [2, 3]
1 | CCOc1cccc2c(N3CCC(CS(C)(=N)=O)CC3)c(C#N)cnc12 (stereo not drawn) [Compound 197, 8-ethoxy-4-(4-{[imino(methyl)oxo-λ^6-sulfanyl]methyl}piperidin-1-yl)quinoline-3-carbonitrile] | 0.04 nM | 2.3 nM | – | –
2 | COc1cccc2c(N3CCC(O)(CS(C)(=N)=O)CC3)nc(C)nc12 (stereo not drawn) [Compound 199, {[4-hydroxy-1-(8-methoxy-2-methylquinazolin-4-yl)piperidin-4-yl]methyl}(imino)methyl-λ^6-sulfanone] | 0.43 nM | 8.8 nM | – | –
3 | CS(=N)(=O)CC1CCN(c2c(C#N)cnc3c(OCF)cccc23)CC1 (stereo not drawn) [Compound 200, 8-(fluoromethoxy)-4-(4-{[imino(methyl)oxo-λ^6-sulfanyl]methyl}piperidin-1-yl)quinoline-3-carbonitrile] | 0.019 nM | 0.41 nM | – | –
4 | COc1cccc2c(N3CCC(CS(C)(=N)=O)CC3)c(C#N)c(C)nc12 (stereo not drawn) [Compound 201, 4-(4-{[imino(methyl)oxo-λ^6-sulfanyl]methyl}piperidin-1-yl)-8-methoxy-2-methylquinoline-3-carbonitrile] | 0.69 nM | 12 nM | – | –
5 | COc1cc2nccc(N3CCC4(CC3)CCN(S(C)(=N)=O)C4)c2cc1F (stereo not drawn) [Compound 205, [8-(6-fluoro-7-methoxyquinolin-4-yl)-2,8-diazaspiro[4.5]decan-2-yl](imino)methyl-λ^6-sulfanone] | 0.032 nM | 2.2 nM | – | –
6 | COc1cc2nccc(N3CCC4(CC3)CCN([S@@](C)(=N)=O)C4)c2cc1F [Compound 205b] | – | – | 0.0057 nM | 0.12 nM
7 | COc1cc2nccc(N3CCC4(CC3)CCN(S(C)(=N)=O)C4)c2cc1OC (stereo not drawn) [Compound 208, [8-(6,7-dimethoxyquinolin-4-yl)-2,8-diazaspiro[4.5]decan-2-yl](imino)methyl-λ^6-sulfanone] | 0.021 nM | 0.21 nM | – | –
8 | COc1cc2nccc(N3CCC4(CC3)CCN([S@@](C)(=N)=O)C4)c2cc1OC [Compound 208a] | – | – | 1.1 nM | 55 nM
9 | COc1cc2nccc(N3CCC4(CC3)CCN([S@](C)(=N)=O)C4)c2cc1OC [Compound 208b] | – | – | 0.0078 nM | 0.16 nM
10 | COc1cc2ncc(C#N)c(N3CCC4(CC3)CCN(S(C)(=N)=O)C4)c2cc1F (stereo not drawn) [Compound 210, 6-fluoro-4-{2-[imino(methyl)oxo-λ^6-sulfanyl]-2,8-diazaspiro[4.5]decan-8-yl}-7-methoxyquinoline-3-carbonitrile] | 0.024 nM | 2.5 nM | – | –
11 | COc1cc2nncc(N3CCC4(CC3)CCN(S(C)(=N)=O)C4)c2cc1OC (stereo not drawn) [Compound 211, [8-(6,7-dimethoxycinnolin-4-yl)-2,8-diazaspiro[4.5]decan-2-yl](imino)methyl-λ^6-sulfanone] | 0.022 nM | 0.97 nM | – | –
12 | COc1cc2nncc(N3CCC4(CC3)CCN([S@](C)(=N)=O)C4)c2cc1OC [Compound 211a] | – | – | 0.023 nM | 2.2 nM
13 | COc1cc2nc(C)nc(N3CCC4(CC3)CCN(S(C)(=N)=O)C4)c2cc1OC (stereo not drawn) [Compound 213, [8-(6,7-dimethoxy-2-methylquinazolin-4-yl)-2,8-diazaspiro[4.5]decan-2-yl](imino)methyl-λ^6-sulfanone] | 0.058 nM | 2.8 nM | – | –
14 | COc1cc2nccc(N3CCC4(CC3)CCN(S(=N)(=O)C3CC3)C4)c2cc1F (stereo not drawn) [Compound 218, {cyclopropyl[8-(6-fluoro-7-methoxyquinolin-4-yl)-2,8-diazaspiro[4.5]decan-2-yl]imino-λ^6-sulfanyl}one] | 0.022 nM | 0.69 nM | – | –
15 | COc1cc2nccc(N3CCC4(CC3)CCN([S@@](=N)(=O)C3CC3)C4)c2cc1F [Compound 218a] | – | – | 0.0078 nM | 0.29 nM
16 | COc1cc2nncc(N3CCC4(CC3)CCN([S@](C)(=N)=O)C4)c2cc1Cl [Compound 219a] | – | – | 0.071 nM | 1.2 nM
17 | COc1cc2nnc(C)c(N3CCC4(CC3)CCN(S(C)(=N)=O)C4)c2cc1Cl (stereo not drawn) [Compound 220, [8-(6-chloro-7-methoxy-3-methylcinnolin-4-yl)-2,8-diazaspiro[4.5]decan-2-yl](imino)methyl-λ^6-sulfanone] | 0.25 nM | 11 nM | – | –
18 | CCS(=N)(=O)N1CCC2(CCN(c3ncnc4cc(OC)c(F)cc34)CC2)C1 (stereo not drawn) [Compound 221, ethyl[8-(6-fluoro-7-methoxyquinazolin-4-yl)-2,8-diazaspiro[4.5]decan-2-yl]imino-λ^6-sulfanone] | 0.12 nM | 4.6 nM | – | –
19 | COc1cc2nncc(N3CCC4(CC3)CCN(S(=N)(=O)C3CC3)C4)c2cc1Cl (stereo not drawn) [Compound 225, {[8-(6-chloro-7-methoxycinnolin-4-yl)-2,8-diazaspiro[4.5]decan-2-yl](cyclopropyl)imino-λ^6-sulfanyl}one] | 0.096 nM | 6.8 nM | – | –
20 | COc1cc2nccc(N3CCC4(CC3)CCN(S(C)(=N)=O)C4)c2cc1C#N (stereo not drawn) [Compound 226, 4-{2-[imino(methyl)oxo-λ^6-sulfanyl]-2,8-diazaspiro[4.5]decan-8-yl}-7-methoxyquinoline-6-carbonitrile] | 1.2 nM | 43 nM | – | –
21 | COc1cc2ncc(F)c(N3CCC4(CC3)CCN(S(C)(=N)=O)C4)c2cc1OC (stereo not drawn) [Compound 227, [8-(3-fluoro-6,7-dimethoxyquinolin-4-yl)-2,8-diazaspiro[4.5]decan-2-yl](imino)methyl-λ^6-sulfanone] | 0.018 nM | 0.51 nM | – | –
22 | COc1cc2nnc(C)c(N3CCC4(CC3)CCN(S(C)(=N)=O)C4)c2cc1OC (stereo not drawn) [Compound 228, [8-(6,7-dimethoxy-3-methylcinnolin-4-yl)-2,8-diazaspiro[4.5]decan-2-yl](imino)methyl-λ^6-sulfanone] | 0.25 nM | 8.7 nM | – | –
23 | COc1cc2nccc(OC[C@@H]3CCN([S@](C)(=N)=O)C3)c2cc1F [Compound 229b] | – | – | 0.37 nM | 3.6 nM

Other lines, results leading:

Row | Ki ([1]; Assay 2 (KI)) | Ki [2] | Ki ([1]; read-out: Assay 2 (KI)) | Ki [2, 3] | Structure (SMILES)
24 | 0.19 nM | 7.3 nM | – | – | COc1cccc2c(N3CCC(CS(=N)(=O)C4CC4)CC3)ncnc12 (stereo not drawn) [Compound 190, cyclopropyl(imino){[1-(8-methoxyquinazolin-4-yl)piperidin-4-yl]methyl}-λ^6-sulfanone]
25 | 0.34 nM | 15 nM | – | – | COc1cccc2c(N3CCC(O)(CS(=N)(=O)C4CCC4)CC3)ncnc12 (stereo not drawn) [Compound 191, cyclobutyl({[4-hydroxy-1-(8-methoxyquinazolin-4-yl)piperidin-4-yl]methyl})imino-λ^6-sulfanone]
26 | 0.023 nM | 0.62 nM | – | – | COc1cccc2c(N3CCC(O)(CS(=N)(=O)C4CC4)CC3)ncnc12 (stereo not drawn) [Compound 193, cyclopropyl({[4-hydroxy-1-(8-methoxyquinazolin-4-yl)piperidin-4-yl]methyl})imino-λ^6-sulfanone]
27 | – | – | 0.012 nM | 0.36 nM | COc1cccc2c(N3CCC(O)(C[S@](=N)(=O)C4CC4)CC3)ncnc12 [Compound 193b]
28 | 0.091 nM | 2.3 nM | – | – | CCOc1cccc2c(N3CCC(O)(CS(C)(=N)=O)CC3)ncnc12 (stereo not drawn) [Compound 196, {[1-(8-ethoxyquinazolin-4-yl)-4-hydroxypiperidin-4-yl]methyl}(imino)methyl-λ^6-sulfanone]
29 | 0.014 nM | 0.2 nM | – | – | COc1cccc2c(N3CCC(O)(CS(C)(=N)=O)CC3)c(C#N)cnc12 (stereo not drawn) [Compound 198, 4-(4-hydroxy-4-{[imino(methyl)oxo-λ^6-sulfanyl]methyl}piperidin-1-yl)-8-methoxyquinoline-3-carbonitrile]
30 | – | – | 0.0025 nM | 0.086 nM | COc1cccc2c(N3CCC(O)(C[S@@](C)(=N)=O)CC3)c(C#N)cnc12 [Compound 198a]
31 | 0.037 nM | 3.3 nM | – | – | COc1cc2ncnc(N3CCC4(CCN(S(C)(=N)=O)CC4)C3)c2cc1OC (stereo not drawn) [Compound 207, [2-(6,7-dimethoxyquinazolin-4-yl)-2,8-diazaspiro[4.5]decan-8-yl](imino)methyl-λ^6-sulfanone]
32 | 0.047 nM | 4.4 nM | – | – | COc1cc2ncnc(N3CCC4(CC3)CCN(S(C)(=N)=O)C4)c2cc1Cl (stereo not drawn) [Compound 212, [8-(6-chloro-7-methoxyquinazolin-4-yl)-2,8-diazaspiro[4.5]decan-2-yl](imino)methyl-λ^6-sulfanone]
33 | 0.29 nM | 8 nM | – | – | COc1cccc2c(N3CC4(CCN(S(C)(=N)=O)C4)C3)ncnc12 (stereo not drawn) [Compound 217, imino[2-(8-methoxyquinazolin-4-yl)-2,6-diazaspiro[3.4]octan-6-yl]methyl-λ^6-sulfanone]
34 | 0.07 nM | 1.1 nM | – | – | COc1cccc2c(N3CC4(CCN(S(C)(=N)=O)C4)C3)c(C#N)cnc12 (stereo not drawn) [Compound 222, 4-{6-[imino(methyl)oxo-λ^6-sulfanyl]-2,6-diazaspiro[3.4]octan-2-yl}-8-methoxyquinoline-3-carbonitrile]
35 | – | – | 0.034 nM | 1.2 nM | COc1cccc2c(N3CC4(CCN([S@@](C)(=N)=O)C4)C3)c(C#N)cnc12 [Compound 222a]
36 | 0.11 nM | 3.2 nM | – | – | COc1cccc2c(N3CCC4(C3)CN(S(C)(=N)=O)C4)ncnc12 (stereo not drawn) [Compound 223, imino[6-(8-methoxyquinazolin-4-yl)-2,6-diazaspiro[3.4]octan-2-yl]methyl-λ^6-sulfanone]
37 | – | – | 0.047 nM | 3.1 nM | COc1cccc2c(N3CCC4(C3)CN([S@](C)(=N)=O)C4)ncnc12 [Compound 223a]
38 | – | – | 19 nM | 460 nM | COc1cccc2c(N3CCC4(C3)CN([S@@](C)(=N)=O)C4)ncnc12 [Compound 223b]
39 | 0.019 nM | 1.1 nM | – | – | COc1cc2ncnc(N3CCC4(CC3)CCN(S(C)(=N)=O)C4)c2cc1F (stereo not drawn) [Compound 224, [8-(6-fluoro-7-methoxyquinazolin-4-yl)-2,8-diazaspiro[4.5]decan-2-yl](imino)methyl-λ^6-sulfanone]
